Test system: HSV-1 (KOS) gL86
Assay: HSV-1 entry into primary human corneal fibroblasts (CF)
Format: cell-based, herpes simplex virus type-1
Details: CF, 6 h, ONPG (FIG. 4A)
Protocol: HSV-1 entry was assayed as described in Shukla et al., Cell 99:13-22 (1999). CHO-K1 cells were grown in 6-well plates to subconfluence and then transfected with 2.5 μg of expression plasmids for gD receptors nectin-1 (pBG38), HVEM (pBec10), 3-OST-3 isoform (pDS43), or pCDNA3.1 (empty vector) using LipofectAMINE (Gibco/BRL). At 16 h post-transfection, the cells were replated into 96-well dishes for pre-incubation with peptides at different concentrations for 60 min at room temperature. In parallel, natural target cells (HeLa, CF, and RPE) were also pre-treated with the peptides for the same duration. In all cases, unbound peptides were removed after washing 3× with PBS. Thereafter, cells were infected for 6 h with a recombinant virus, HSV-1 (KOS) gL86, at multiple plaque forming units (PFUs) and β-galactosidase assays were performed using either a soluble substrate o-nitrophenyl-β-D-galactopyranoside (ONPG at 3.0 mg/ml; ImmunoPure, Pierce) or X-gal (Sigma). For the soluble substrate, the enzymatic activity was measured at 410 nm using a micro-plate reader (Spectra Max 190, Molecular Devices, Sunnyvale, Calif.). For the X-gal assay, cells were fixed (2% formaldehyde and 0.2% glutaraldehyde) and permeabilized (2 mM MgCl2, 0.01% deoxycholate, and 0.02% nonidet NP-40 (Sigma)). 1 ml of β-galactosidase reagent (1.0 mg/ml X-gal in ferricyanide buffer) was added to each well and incubated at 37° C. for 90 min before the cells were examined using bright field microscopy under the 20× objectives of the inverted microscope (Zeiss Axiovert 100 M).
The ability of the G1 and G2 peptides to block HSV-1 entry into natural target cells (HeLa and primary cultures of human CF) was compared. A similar dosage response curve was generated when HeLa (FIG. 2A) or CF (FIG. 2B) were pre-treated with G1 or G2 peptides during HSV-1 entry. […] HeLa cells (FIG. 2A) and primary cultures of human corneal fibroblasts (CF) (FIG. 2B) were tested. Cells in 96-well plates were pre-treated for 60 min with indicated mM concentrations of G1, G2, or Cp peptides. Mock-treated cells (abbreviated as C) served as a control. Pretreated cells were infected with a β galactosidase-expressing recombinant virus HSV-1 (KOS) HSV-1 gL86 (25 pfu/cell) for 6 hr. Viral entry was quantitated as described above in reference to FIG. 1. Confirmation of HSV-1 entry blocking activity of G1, G2, and control (Cp) peptides on a per cell basis was obtained after cells were infected as described above followed by X-gal (1.0 mg/ml) staining (Right panels), which yields an insoluble blue product upon hydrolysis by β-galactosidase expressed from the input viral genomes. […] Microscopy was performed using a 20× objective of Zeiss Axiovert 100.
To better understand the inhibitory potential of G1 and G2 peptides, synthetic short variants (10-mer) were synthesized that lacked the terminal non-positively charged amino acids. In case of G1, N-terminus L and C-terminus H residues were removed. For G2, the N-terminus flanking residues (M and P) were removed. Without being bound by theory, it is believed that 12-mer peptides are too short to adopt substantial secondary or tertiary structures and that the primary structure of those peptides, which includes a defined sequence or groupings of positively charged residues, plays a critical role in mediating inhibition of HSV-1 entry. Synthetic 10-mer versions of G1 and G2 (shown above) were tested for blocking HSV-1(KOS)gL86 entry into cultured CF. After 6 h, the viral entry was measured by ONPG assay as described in FIG. 1.
Alanine (A) scanning mutagenesis was performed to identify specific amino acid residues responsible for each peptide's function, stability, and conformation. O'Nuallain et al., Biochemistry 46:13049-13058 (2007). Twelve synthetic peptides were made whereby each residue of G2 was sequentially replaced with an alanine residue and corresponding changes in the G2 peptide were evaluated for their ability to affect viral entry (FIG. 4B). […]

Row | Sequence | ability of 10-mer version to block HSV-1 entry compared with 12-mer
1 | RRRRIRRRQK [10-mer version of G2] | very similar to the 12-mer in its ability to block HSV-1 entry
2 | RSRTKIIRIR [10-mer version of G1] | almost completely lost its ability to block HSV-1 entry

From US9464113B2, “Anti-heparan sulfate peptides that block herpes simplex virus infection in vivo” (The Board of Trustees of the University of Illinois, priority 2010, dated 2016)
